Blank lines part the entries; values can stand above or below the compound they belong to.
Assays:
[1] = molecular target: T1, human Nav1.5 (Homo sapiens, UniProt Q14524); test: PatchXpress sodium current measurement, inactivated state block, Nav1.5; assay type: cell-based; conditions: determined by PatchXpress measurement, HEK 293 cells
T1 construct: expressed in transfected cells
Procedure, shortened: (§1)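 HEK293 cells stably expressing channel; automated patch clamp at 22 °C, double-pulse protocol: hold 20 mV below V½ inactivation, 8000 ms prepulse 7 mV above V½, 2 ms step to −120 mV, 20 ms test pulse to −20 mV. CsF-based internal (pH 7.3), NMDG/40 mM NaCl external (pH 7.5). Rundown-corrected % inhibition (≥2 concentrations) fitted to Hill equation for IC50.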

[2] = molecular target: T2, human Nav1.7 (Homo sapiens, UniProt Q15858); test: PatchXpress sodium current measurement, inactivated state block, Nav1.7; assay type: cell-based; conditions: channels stably expressed in HEK 293 cells, double-pulse protocol, 22° C., read-out: potency for the Nav 1.7 sodium ion channel (1.7=)
T2 construct: expressed in transfected cells
Procedure, shortened: as §1

T1 sequence (Q14524 whole entry): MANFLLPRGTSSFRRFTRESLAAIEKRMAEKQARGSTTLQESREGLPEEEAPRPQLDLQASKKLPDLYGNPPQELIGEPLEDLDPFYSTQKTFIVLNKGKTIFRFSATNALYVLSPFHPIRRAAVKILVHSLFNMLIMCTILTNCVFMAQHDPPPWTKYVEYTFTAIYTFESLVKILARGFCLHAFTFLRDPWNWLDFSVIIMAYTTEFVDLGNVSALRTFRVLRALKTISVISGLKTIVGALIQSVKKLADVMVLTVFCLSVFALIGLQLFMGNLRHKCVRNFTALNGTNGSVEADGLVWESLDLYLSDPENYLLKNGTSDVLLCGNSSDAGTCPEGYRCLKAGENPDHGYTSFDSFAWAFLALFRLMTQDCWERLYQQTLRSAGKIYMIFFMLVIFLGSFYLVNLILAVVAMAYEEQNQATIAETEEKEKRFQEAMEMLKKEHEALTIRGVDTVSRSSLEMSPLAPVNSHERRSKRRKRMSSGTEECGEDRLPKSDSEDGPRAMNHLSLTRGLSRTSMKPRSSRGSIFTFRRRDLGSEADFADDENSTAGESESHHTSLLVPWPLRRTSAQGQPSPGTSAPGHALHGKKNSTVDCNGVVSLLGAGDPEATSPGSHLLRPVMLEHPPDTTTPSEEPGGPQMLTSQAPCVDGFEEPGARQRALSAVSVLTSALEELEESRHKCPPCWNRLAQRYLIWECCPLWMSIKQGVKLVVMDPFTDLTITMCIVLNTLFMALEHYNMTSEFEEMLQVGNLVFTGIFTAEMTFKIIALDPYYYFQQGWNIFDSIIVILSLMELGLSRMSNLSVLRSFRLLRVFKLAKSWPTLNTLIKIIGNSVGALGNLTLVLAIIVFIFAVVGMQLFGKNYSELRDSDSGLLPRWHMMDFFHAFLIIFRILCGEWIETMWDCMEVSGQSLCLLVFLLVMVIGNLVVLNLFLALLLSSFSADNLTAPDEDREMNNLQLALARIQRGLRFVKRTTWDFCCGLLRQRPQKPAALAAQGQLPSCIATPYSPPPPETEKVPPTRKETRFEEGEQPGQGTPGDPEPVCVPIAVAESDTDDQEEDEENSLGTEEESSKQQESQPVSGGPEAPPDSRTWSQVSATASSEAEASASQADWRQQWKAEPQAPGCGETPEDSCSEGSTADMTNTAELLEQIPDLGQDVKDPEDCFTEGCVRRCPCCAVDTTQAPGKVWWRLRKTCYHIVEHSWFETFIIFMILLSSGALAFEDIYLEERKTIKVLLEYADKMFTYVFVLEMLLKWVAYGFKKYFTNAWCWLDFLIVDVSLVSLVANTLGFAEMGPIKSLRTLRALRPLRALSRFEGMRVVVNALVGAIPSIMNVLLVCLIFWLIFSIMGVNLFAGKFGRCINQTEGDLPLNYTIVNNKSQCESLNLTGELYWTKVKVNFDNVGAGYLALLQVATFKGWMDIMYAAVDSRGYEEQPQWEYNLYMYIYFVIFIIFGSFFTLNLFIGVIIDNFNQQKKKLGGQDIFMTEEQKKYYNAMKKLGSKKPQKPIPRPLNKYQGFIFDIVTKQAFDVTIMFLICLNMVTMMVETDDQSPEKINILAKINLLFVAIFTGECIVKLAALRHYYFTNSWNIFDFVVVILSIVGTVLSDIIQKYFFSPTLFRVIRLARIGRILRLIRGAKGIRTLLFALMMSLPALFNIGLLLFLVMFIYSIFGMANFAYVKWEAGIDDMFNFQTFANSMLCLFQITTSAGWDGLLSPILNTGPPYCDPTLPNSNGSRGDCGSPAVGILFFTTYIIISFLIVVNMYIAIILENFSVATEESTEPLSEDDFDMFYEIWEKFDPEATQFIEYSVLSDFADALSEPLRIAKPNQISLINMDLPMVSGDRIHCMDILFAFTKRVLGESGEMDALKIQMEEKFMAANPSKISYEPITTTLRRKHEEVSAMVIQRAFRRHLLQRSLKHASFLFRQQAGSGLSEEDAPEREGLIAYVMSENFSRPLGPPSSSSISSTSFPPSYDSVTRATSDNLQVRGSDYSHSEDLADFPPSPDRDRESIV
T2 sequence (Q15858 whole entry): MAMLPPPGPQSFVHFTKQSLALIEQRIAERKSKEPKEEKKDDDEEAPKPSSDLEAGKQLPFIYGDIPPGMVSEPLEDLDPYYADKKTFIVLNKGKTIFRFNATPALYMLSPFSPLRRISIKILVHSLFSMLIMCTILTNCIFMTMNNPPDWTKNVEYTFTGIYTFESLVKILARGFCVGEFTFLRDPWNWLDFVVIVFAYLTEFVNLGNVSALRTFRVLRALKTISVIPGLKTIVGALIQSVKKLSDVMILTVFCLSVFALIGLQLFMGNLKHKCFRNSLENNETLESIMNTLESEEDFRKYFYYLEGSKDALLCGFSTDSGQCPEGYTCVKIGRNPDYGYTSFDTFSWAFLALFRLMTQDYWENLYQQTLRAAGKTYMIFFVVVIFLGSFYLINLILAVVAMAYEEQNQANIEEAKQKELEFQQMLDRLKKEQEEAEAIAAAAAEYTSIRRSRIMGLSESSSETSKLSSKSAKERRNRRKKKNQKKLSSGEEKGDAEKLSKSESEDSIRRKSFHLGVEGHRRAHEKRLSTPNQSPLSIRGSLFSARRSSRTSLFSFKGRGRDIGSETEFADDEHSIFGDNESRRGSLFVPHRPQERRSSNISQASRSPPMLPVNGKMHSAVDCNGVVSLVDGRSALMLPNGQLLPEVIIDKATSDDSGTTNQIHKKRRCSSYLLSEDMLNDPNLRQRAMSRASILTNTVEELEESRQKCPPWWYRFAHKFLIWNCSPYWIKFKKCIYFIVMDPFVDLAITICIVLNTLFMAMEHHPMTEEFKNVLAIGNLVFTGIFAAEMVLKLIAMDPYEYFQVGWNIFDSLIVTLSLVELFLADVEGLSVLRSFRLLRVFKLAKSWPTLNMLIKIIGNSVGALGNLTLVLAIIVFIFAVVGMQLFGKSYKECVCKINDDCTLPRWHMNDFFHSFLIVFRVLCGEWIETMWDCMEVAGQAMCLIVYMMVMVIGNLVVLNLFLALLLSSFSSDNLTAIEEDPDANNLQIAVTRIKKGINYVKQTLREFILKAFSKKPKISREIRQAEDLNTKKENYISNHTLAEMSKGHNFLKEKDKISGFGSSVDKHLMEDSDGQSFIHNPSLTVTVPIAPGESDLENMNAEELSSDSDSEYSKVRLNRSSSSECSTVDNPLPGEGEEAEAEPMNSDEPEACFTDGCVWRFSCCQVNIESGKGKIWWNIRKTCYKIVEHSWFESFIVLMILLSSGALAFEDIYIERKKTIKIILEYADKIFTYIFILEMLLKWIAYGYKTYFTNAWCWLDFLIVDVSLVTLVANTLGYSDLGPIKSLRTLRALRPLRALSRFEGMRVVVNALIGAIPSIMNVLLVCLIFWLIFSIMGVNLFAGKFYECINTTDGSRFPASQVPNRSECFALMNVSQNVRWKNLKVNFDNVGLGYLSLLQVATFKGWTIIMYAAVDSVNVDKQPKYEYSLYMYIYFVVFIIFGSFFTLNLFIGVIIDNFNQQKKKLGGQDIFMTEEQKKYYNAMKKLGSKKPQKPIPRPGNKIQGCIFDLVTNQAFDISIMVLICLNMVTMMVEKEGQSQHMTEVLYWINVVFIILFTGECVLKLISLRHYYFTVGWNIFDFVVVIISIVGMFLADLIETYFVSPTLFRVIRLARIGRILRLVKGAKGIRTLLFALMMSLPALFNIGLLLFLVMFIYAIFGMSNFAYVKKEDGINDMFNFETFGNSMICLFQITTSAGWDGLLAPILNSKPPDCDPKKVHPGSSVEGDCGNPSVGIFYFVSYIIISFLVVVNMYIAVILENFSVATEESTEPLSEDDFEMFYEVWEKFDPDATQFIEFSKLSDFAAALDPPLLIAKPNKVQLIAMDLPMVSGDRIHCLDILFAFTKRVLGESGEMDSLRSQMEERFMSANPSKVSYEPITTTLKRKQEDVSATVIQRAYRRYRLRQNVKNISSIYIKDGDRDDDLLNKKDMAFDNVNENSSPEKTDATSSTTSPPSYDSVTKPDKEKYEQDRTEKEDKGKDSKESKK

SMILES: C[C@H](c1cccc(CCCN2CCC2)c1)n1c(=O)oc2cc(S(=O)(=O)Nc3cccc(F)n3)c(F)cc21 [Ex22-4, 3-[(1R)-1-{3-[3-(azetidin-1-yl)propyl]phenyl}ethyl]-5-fluoro-N-(6-fluoro-pyridin-2-yl)-2-oxo-2,3-dihydro-1,3-benzoxazole-6-sulfonamide]
- ratio of Nav 1.5:Nav 1.7 potency [1]: 178
- IC50 [2]: 169 nM

SMILES: C[C@H](c1ccccc1N1CCNCC1)n1c(=O)oc2cc(S(=O)(=O)Nc3cccc(F)n3)c(F)cc21 [Ex23-1, 5-fluoro-N-(6-fluoropyridin-2-yl)-2-oxo-3-{(1R)-1-[2-(piperazin-1-yl)phenyl]ethyl}-2,3-dihydro-1,3-benzoxazole-6-sulfonamide]
- ratio of Nav 1.5:Nav 1.7 potency [1]: 200
- IC50 [2]: 150 nM

Compounds with a lower IC50 [2], results first:

- IC50 [2]: 101 nM
SMILES: Cc1c(CCCN)cccc1[C@@H](C)n1c(=O)oc2cc(S(=O)(=O)Nc3cccc(F)n3)c(F)cc21 [Ex22-3, 3-{(1R)-1-[3-(3-amino-propyl)-2-methylphenyl]ethyl}-5-fluoro-N-(6-fluoropyridin-2-yl)-2-oxo-2,3-dihydro-1,3-benzoxazole-6-sulfonamide]
- ratio of Nav 1.5:Nav 1.7 potency [1]: 297

- IC50 [2]: 74 nM
SMILES: Cc1cc2c(cc1S(=O)(=O)Nc1cccc(F)n1)oc(=O)n2[C@H](C)c1ccccc1N1CCNCC1 [Ex23-2, N-(6-fluoropyridin-2-yl)-5-methyl-2-oxo-3-{(1R)-1-[2-(piperazin-1-yl)phenyl]ethyl}-2,3-dihydro-1,3-benzoxazole-6-sulfonamide]
- ratio of Nav 1.5:Nav 1.7 potency [1]: 405

- IC50 [2]: 70 nM
SMILES: Cc1cc2c(cc1S(=O)(=O)Nc1cccc(F)n1)oc(=O)n2[C@H](C)c1cccc(CCCN)c1 [Ex22-2, 3-{(1R)-1-[3-(3-amino-propyl)phenyl]ethyl}-N-(6-fluoropyridin-2-yl)-5-methyl-2-oxo-2,3-dihydro-1,3-benzoxazole-6-sulfonamide]
- ratio of Nav 1.5:Nav 1.7 potency [1]: 305
